Experimental data reported in PubChem BioAssay AID248 (DTP/NCI, 2004).
Where “and” joins values, the source holds several entries; their conditions need not be identical. Equal entries are not always repeated. Inconclusive results and toxic doses are left out. No stated cut-off is given here; in the data, active means T/C of 150% or more; inactive means T/C below 125%.

Test system: L1210 leukemia ip in BDF1 mice, survival T/C
Assay: NCI In Vivo Anticancer Drug Screen. Data for tumor model L1210 Leukemia (intraperitoneal) in B6D2F1 (BDF1) mice
Conditions: endpoint: mean survival time, higher = longer survival
How it was run: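 Transplantable tumor model; survival measured in treated vs vehicle control mice. Value = treated/control.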

[1] = dose: 100.0 mg/kg/injection, schedule: Q04DX002 (ip), vehicle: Klucel (hydroxypropylcellulose) (HPC)
[2] = dose: 200.0 mg/kg/injection, schedule: Q04DX002 (ip), vehicle: Klucel (hydroxypropylcellulose) (HPC)
[3] = dose: 400.0 mg/kg/injection, schedule: Q04DX002 (ip), vehicle: Klucel (hydroxypropylcellulose) (HPC)
[4] = dose: 50.0 mg/kg/injection, schedule: Q01DX009 (ip), vehicle: Klucel (hydroxypropylcellulose) (HPC)
[5] = dose: 100.0 mg/kg/injection, schedule: Q01DX009 (ip), vehicle: Klucel (hydroxypropylcellulose) (HPC)
[6] = dose: 100.0 mg/kg/injection, schedule: Q04DX003 (ip), vehicle: Klucel (hydroxypropylcellulose) (HPC)
[7] = dose: 200.0 mg/kg/injection, schedule: Q04DX003 (ip), vehicle: Klucel (hydroxypropylcellulose) (HPC)
[8] = dose: 50.0 mg/kg/injection, schedule: Q01DX009 (ip), vehicle: saline with Tween-80
[9] = dose: 100.0 mg/kg/injection, schedule: Q01DX009 (ip), vehicle: saline with Tween-80
[10] = dose: 200.0 mg/kg/injection, schedule: Q01DX009 (ip), vehicle: saline with Tween-80
[11] = dose: 100.0 mg/kg/injection, schedule: Q04DX002 (ip), vehicle: saline
[12] = dose: 200.0 mg/kg/injection, schedule: Q04DX002 (ip), vehicle: saline
[13] = dose: 400.0 mg/kg/injection, schedule: Q04DX003 (ip), vehicle: Klucel (hydroxypropylcellulose) (HPC)
[14] = dose: 100.0 mg/kg/injection, schedule: Q01DX001 (ip), vehicle: other
[15] = dose: 400.0 mg/kg/injection, schedule: Q01DX001 (ip), vehicle: other
[16] = dose: 100.0 mg/kg/injection, schedule: Q01DX001 (ip), vehicle: carboxymethylcellulose (CMC)
[17] = dose: 200.0 mg/kg/injection, schedule: Q01DX001 (ip), vehicle: carboxymethylcellulose (CMC)
[18] = dose: 400.0 mg/kg/injection, schedule: Q01DX001 (ip), vehicle: carboxymethylcellulose (CMC)

Measured: T/C

Cc1c2cc3c(c1O)C(=O)CC(O3)c1ccc(O)c(c1)-c1cccc(c1O)C(=O)OCC1OC(O2)C(O)C(O)C1O (stereo unspecified)
inactive: dose: 0.13 mg/kg/injection, schedule: Q01DX009 (ip), vehicle: Klucel (hydroxypropylcellulose) (HPC) 104 % of control | dose: 0.25 mg/kg/injection, schedule: Q01DX009 (ip), vehicle: Klucel (hydroxypropylcellulose) (HPC) 97 % of control | dose: 0.5 mg/kg/injection, schedule: Q01DX009 (ip), vehicle: Klucel (hydroxypropylcellulose) (HPC) 98 % of control | dose: 1.0 mg/kg/injection, schedule: Q01DX009 (ip), vehicle: Klucel (hydroxypropylcellulose) (HPC) 103 % of control

CC1(C)N=C(N)N=C(N)N1c1cccc(CCCCc2cccc(NC(=O)CBr)c2)c1
inactive: dose: 5.0 mg/kg/injection, schedule: Q01DX001 (ip), vehicle: saline 102 % of control | dose: 10.0 mg/kg/injection, schedule: Q01DX001 (ip), vehicle: saline 98 % of control | dose: 20.0 mg/kg/injection, schedule: Q01DX001 (ip), vehicle: saline 98 % of control | dose: 40.0 mg/kg/injection, schedule: Q01DX001 (ip), vehicle: saline 112 % of control

CCCCCOC(=O)Nc1ccc(OCC)cc1
inactive: [1] 105 % of control | [2] 101 % of control | [3] 105 % of control

CCN(CC)Cc1ncccc1O
inactive: [4] 106 % of control | [5] 106 % of control | [6] 105 % of control | dose: 200.0 mg/kg/injection, schedule: Q01DX009 (ip), vehicle: Klucel (hydroxypropylcellulose) (HPC) 93 % of control | [7] 104 % of control

OCC12NC(=S)OC1C(O)C(O)CO2 (stereo unspecified)
inactive: [8] 104 % of control | [9] 104 % of control | [10] 104 % of control

CCCOCCOCCOC(C)Oc1cc(OC)ccc1OC (stereo unspecified)
inactive: [11] 93 % of control | [12] 111 % of control | dose: 400.0 mg/kg/injection, schedule: Q04DX002 (ip), vehicle: saline 96 % of control

O=C(CC(=O)C(F)(F)C(F)(F)C(F)(F)F)C(F)(F)F
inactive: dose: 12.5 mg/kg/injection, schedule: Q01DX009 (ip), vehicle: saline 107 % of control | dose: 12.5 mg/kg/injection, schedule: Q04DX003 (ip), vehicle: saline 102 % of control | dose: 25.0 mg/kg/injection, schedule: Q01DX009 (ip), vehicle: saline 88 % of control | dose: 25.0 mg/kg/injection, schedule: Q04DX003 (ip), vehicle: saline 87 % of control | dose: 50.0 mg/kg/injection, schedule: Q04DX003 (ip), vehicle: saline 93 % of control

O=C1NC(c2cccc3ccccc23)Nc2cc(Cl)ccc21 (stereo unspecified)
inactive: [4] 109 % of control | [5] 112 % of control | dose: 150.0 mg/kg/injection, schedule: Q01DX009 (ip), vehicle: Klucel (hydroxypropylcellulose) (HPC) 118 % of control

CCCCCCCCCCCCCCCCOc1ccc(-c2cc(=O)n(C)n2C)cc1
inactive: [6] 95 % of control | [7] 101 % of control | [13] 95 % of control

C=C1C(=O)OC2C1CCC(C)=C1C(=O)C=C(C)C12 (stereo unspecified)
inactive: [11] 94 % of control | [12] 97 % of control

CCCCCCCCCCCC(=O)NC(=S)Nc1ccccc1C(=O)OC
inactive: dose: 25.0 mg/kg/injection, schedule: Q01DX009 (ip), vehicle: saline with Tween-80 93 % of control | [8] 93 % of control | [9] 96 % of control and 92 % of control | dose: 100.0 mg/kg/injection, schedule: Q04DX002 (ip), vehicle: saline with Tween-80 102 % of control and 109 % of control | [10] 104 % of control and 86 % of control and 90 % of control | dose: 200.0 mg/kg/injection, schedule: Q04DX002 (ip), vehicle: saline with Tween-80 105 % of control and 89 % of control | dose: 400.0 mg/kg/injection, schedule: Q01DX009 (ip), vehicle: saline with Tween-80 94 % of control and 108 % of control | dose: 400.0 mg/kg/injection, schedule: Q04DX002 (ip), vehicle: saline with Tween-80 94 % of control and 88 % of control

O=[N+]([O-])c1ccc(OCc2ccc(S(=O)(=O)F)cc2Cl)c(Cl)c1
inactive: dose: 100.0 mg/kg/injection, schedule: Q04DX003 (ip), vehicle: gum acacia 98 % of control | dose: 200.0 mg/kg/injection, schedule: Q04DX003 (ip), vehicle: gum acacia 95 % of control | dose: 400.0 mg/kg/injection, schedule: Q04DX003 (ip), vehicle: gum acacia 97 % of control

CCCCCCCCCCSS(=O)(=O)O
inactive: [14] 98 % of control | [15] 86 % of control

CCOC(=O)/C=C/C(=O)N(C)c1ccccc1
inactive: [14] 100 % of control | dose: 200.0 mg/kg/injection, schedule: Q01DX001 (ip), vehicle: other 100 % of control | [15] 108 % of control

O=c1[nH]c(Cc2ccccc2)c([N+](=O)[O-])c(=O)[nH]1
inactive: dose: 50.0 mg/kg/injection, schedule: Q01DX001 (ip), vehicle: Klucel (hydroxypropylcellulose) (HPC) 94 % of control | dose: 100.0 mg/kg/injection, schedule: Q01DX001 (ip), vehicle: Klucel (hydroxypropylcellulose) (HPC) 103 % of control | dose: 200.0 mg/kg/injection, schedule: Q01DX001 (ip), vehicle: Klucel (hydroxypropylcellulose) (HPC) 97 % of control

COc1ccc(/C=C/C(=O)c2ccc3c(c2)OCO3)cc1O
inactive: dose: 50.0 mg/kg/injection, schedule: Q01DX009 (ip), vehicle: saline 100 % of control | dose: 100.0 mg/kg/injection, schedule: Q01DX009 (ip), vehicle: saline 93 % of control | dose: 100.0 mg/kg/injection, schedule: Q04DX003 (ip), vehicle: saline 93 % of control | dose: 200.0 mg/kg/injection, schedule: Q01DX009 (ip), vehicle: saline 100 % of control | dose: 200.0 mg/kg/injection, schedule: Q04DX003 (ip), vehicle: saline 97 % of control | dose: 300.0 mg/kg/injection, schedule: Q01DX009 (ip), vehicle: saline 120 % of control | dose: 400.0 mg/kg/injection, schedule: Q04DX003 (ip), vehicle: saline 87 % of control

CC(C)(C)C1CCC(C(N)=O)CC1 (stereo unspecified)
inactive: [1] 103 % of control | [2] 107 % of control | [3] 103 % of control

CCCCCCCCCCCC[P+](CCCC)(CCCC)CCCC
inactive: dose: 0.55 mg/kg/injection, schedule: Q01DX Z (ip), vehicle: saline 110 % of control | dose: 1.16 mg/kg/injection, schedule: Q01DX Z (ip), vehicle: saline 100 % of control | dose: 1.25 mg/kg/injection, schedule: Q01DX Z (ip), vehicle: saline 110 % of control

N#CC(CCCc1cccc(N2CN=C(N)N=C2N)c1)c1ccccc1 (stereo unspecified)
inactive: dose: 50.0 mg/kg/injection, schedule: Q01DX001 (ip), vehicle: saline 96 % of control

Cc1c2c(c(C)c3c4c(oc13)CCCC4)C=NCC2
inactive: [16] 95 % of control | [17] 92 % of control | [18] 92 % of control

CCCCC(=O)C(CCC)C(=O)Nc1ccccc1 (stereo unspecified)
inactive: dose: 50.0 mg/kg/injection, schedule: Q04DX003 (ip), vehicle: Klucel (hydroxypropylcellulose) (HPC) 98 % of control | [16] 100 % of control | [6] 94 % of control and 98 % of control | [17] 91 % of control | [7] 96 % of control and 98 % of control | [18] 91 % of control | [13] 98 % of control

CCN(CC)CCOc1ccc(C2=C(c3ccccc3)CCc3cc(OC)ccc32)cc1
inactive: [16] 90 % of control | [17] 92 % of control | [18] 90 % of control

CC1C=C2C(=O)C=C3OCOC34Oc3cc5c(cc3C(C1C)C24)OCO5 (stereo unspecified)
inactive: [6] 94 % of control | [7] 97 % of control | [13] 97 % of control

Oc1ccc(C(c2ccc(O)c(Cl)c2)c2ccccn2)cc1Cl
inactive: [6] 102 % of control | [7] 98 % of control | [13] 100 % of control

NC(N)=N/N=C/C(N)(/C=N/N=C(N)N)/C=N/N=C(N)N
inactive: dose: 120.0 mg/kg/injection, schedule: Q01DX Z (oral), vehicle: saline 106 % of control | dose: 240.0 mg/kg/injection, schedule: Q01DX Z (oral), vehicle: saline 114 % of control | dose: 480.0 mg/kg/injection, schedule: Q01DX Z (oral), vehicle: saline 113 % of control | dose: 960.0 mg/kg/injection, schedule: Q01DX Z (oral), vehicle: saline 106 % of control
